Laboratory results published in ChEMBL document CHEMBL3352520, “CoMFA and CoMSIA analysis of ACE-inhibitory, antimicrobial and bitter-tasting peptides” (Eur J Med Chem, 2014).
Residues, ends and D or L forms follow the SMILES beside them.

Biological target: Angiotensin-converting enzyme (Homo sapiens) (UniProt P12821)
Assay: Inhibition of ACE (unknown origin)
Parameters: unit not given here

Angiotensin-converting enzyme (Homo sapiens), sequence (P12821 whole entry): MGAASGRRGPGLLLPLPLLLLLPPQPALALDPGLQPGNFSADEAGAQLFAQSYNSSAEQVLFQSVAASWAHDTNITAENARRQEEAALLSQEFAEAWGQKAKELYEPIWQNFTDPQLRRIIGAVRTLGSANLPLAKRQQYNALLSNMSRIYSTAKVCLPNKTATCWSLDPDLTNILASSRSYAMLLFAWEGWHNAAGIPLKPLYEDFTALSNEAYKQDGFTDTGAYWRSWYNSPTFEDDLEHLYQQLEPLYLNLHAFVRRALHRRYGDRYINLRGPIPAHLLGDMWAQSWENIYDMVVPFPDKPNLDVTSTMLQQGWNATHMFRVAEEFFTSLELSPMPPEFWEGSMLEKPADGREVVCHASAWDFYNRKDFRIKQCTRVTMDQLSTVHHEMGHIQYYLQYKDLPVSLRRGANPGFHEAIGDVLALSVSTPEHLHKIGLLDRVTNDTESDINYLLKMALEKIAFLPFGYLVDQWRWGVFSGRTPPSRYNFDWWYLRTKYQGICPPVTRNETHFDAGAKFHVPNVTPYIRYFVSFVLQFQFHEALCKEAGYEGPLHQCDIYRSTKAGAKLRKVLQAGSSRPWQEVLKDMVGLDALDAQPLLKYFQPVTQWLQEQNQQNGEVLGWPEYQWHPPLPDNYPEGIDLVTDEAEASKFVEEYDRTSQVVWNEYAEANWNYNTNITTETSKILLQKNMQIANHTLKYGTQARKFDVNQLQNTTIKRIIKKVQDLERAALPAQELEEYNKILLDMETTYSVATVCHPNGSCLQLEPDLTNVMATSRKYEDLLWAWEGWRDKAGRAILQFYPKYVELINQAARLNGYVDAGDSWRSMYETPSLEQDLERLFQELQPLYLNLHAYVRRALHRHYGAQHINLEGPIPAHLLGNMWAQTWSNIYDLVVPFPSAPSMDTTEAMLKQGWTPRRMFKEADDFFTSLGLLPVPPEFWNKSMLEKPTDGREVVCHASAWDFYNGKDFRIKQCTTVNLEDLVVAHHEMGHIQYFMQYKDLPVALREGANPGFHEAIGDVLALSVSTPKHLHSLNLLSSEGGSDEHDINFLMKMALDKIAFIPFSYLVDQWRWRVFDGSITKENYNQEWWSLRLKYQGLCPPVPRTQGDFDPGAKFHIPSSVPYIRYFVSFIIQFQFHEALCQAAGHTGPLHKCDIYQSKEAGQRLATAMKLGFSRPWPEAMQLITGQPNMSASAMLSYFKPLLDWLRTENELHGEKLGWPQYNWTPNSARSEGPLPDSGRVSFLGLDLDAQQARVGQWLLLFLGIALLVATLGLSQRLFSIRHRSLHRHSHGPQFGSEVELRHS

Row | Molecule | logIC50
1 | CC(C)C[C@H](N)C(=O)N[C@@H](Cc1c[nH]c2ccccc12)C(=O)O | 1.24
2 | CC(C)C[C@H](N)C(=O)N[C@@H](Cc1ccc(O)cc1)C(=O)O | 1.51
3 | CC[C@H](C)[C@H](N)C(=O)N[C@@H](Cc1c[nH]c2ccccc12)C(=O)O | 0.67
4 | C[C@H](N)C(=O)N[C@@H](Cc1ccccc1)C(=O)O | 1.88
5 | NC(N)=NCCC[C@H](N)C(=O)N[C@@H](Cc1ccccc1)C(=O)O | 1.97
6 | NCCCC[C@H](N)C(=O)N[C@@H](Cc1ccccc1)C(=O)O | 1.45
7 | CC(C)[C@H](NC(=O)[C@H](C)N)C(=O)NCC(=O)N1CCC[C@H]1C(=O)O (H-AVGP-OH) | 0.49
8 | CC(C)C[C@H](NC(=O)[C@H](C)N)C(=O)N1CCC[C@H]1C(=O)O (H-Ala-Leu-Pro-OH) | 2.38
9 | C[C@H](N)C(=O)N[C@@H](Cc1c[nH]c2ccccc12)C(=O)O (H-Ala-Trp-OH) | 1.08
10 | C[C@H](N)C(=O)N[C@@H](Cc1ccc(O)cc1)C(=O)O (H-Ala-Tyr-OH) | 1.28
11 | CC(C)[C@H](NC(=O)[C@H](C)N)C(=O)N1CCC[C@H]1C(=O)O (H-Ala-Val-Pro-OH) | 2.53
12 | NC(N)=NCCC[C@H](N)C(=O)N1CCC[C@H]1C(=O)O (H-Arg-Pro-OH) | 1.32
13 | NC(N)=NCCC[C@H](N)C(=O)N[C@@H](Cc1c[nH]c2ccccc12)C(=O)O (H-Arg-Trp-OH) | 1.2
14 | N=C(N)NCCC[C@H](N)C(=O)N[C@@H](Cc1ccc(O)cc1)C(=O)O (H-Arg-Tyr-OH) | 1.71
15 | NC(=O)C[C@H](N)C(=O)N[C@@H](Cc1ccccc1)C(=O)O (H-Asn-Phe-OH) | 1.67
16 | NC(=O)C[C@H](N)C(=O)N[C@@H](Cc1ccc(O)cc1)C(=O)O (H-Asn-Tyr-OH) | 1.51
17 | CC(C)C[C@H](NC(=O)[C@@H](N)CC(=O)O)C(=O)N1CCC[C@H]1C(=O)O (H-Asp-Leu-Pro-OH) | 0.68
18 | N[C@@H](CC(=O)O)C(=O)N[C@@H](Cc1ccccc1)C(=O)O (H-Asp-Phe-OH) | 2.56
19 | N[C@@H](CC(=O)O)C(=O)N[C@@H](Cc1ccc(O)cc1)C(=O)O (H-Asp-Tyr-OH) | 2
20 | CC(C)[C@H](NC(=O)[C@@H](N)Cc1ccccc1)C(=O)N[C@@H](C)C(=O)N1CCC[C@H]1C(=O)O (H-FVAP-OH) | 1
21 | C[C@H](NC(=O)[C@H](Cc1c[nH]c2ccccc12)NC(=O)CN)C(=O)N1CCC[C@H]1C(=O)O (H-GWAP-OH) | 0.59
22 | N=C(N)NCCC[C@H](NC(=O)CN)C(=O)N1CCC[C@H]1C(=O)O (H-Gly-Arg-Pro-OH) | 1.3
23 | NCC(=O)N[C@@H](CCC(=O)O)C(=O)N1CCC[C@H]1C(=O)O (H-Gly-Glu-Pro-OH) | 2.51
24 | NCCCC[C@H](NC(=O)CN)C(=O)N1CCC[C@H]1C(=O)O (H-Gly-Lys-Pro-OH) | 2.55
25 | NCC(=O)N[C@@H](Cc1ccccc1)C(=O)O (H-Gly-Phe-OH) | 2.44

Row | Molecule | logIC50
26 | NCC(=O)N1CCC[C@H]1C(=O)O (H-Gly-Pro-OH) | 2.56
27 | NCC(=O)N[C@@H](Cc1c[nH]c2ccccc12)C(=O)O (H-Gly-Trp-OH) | 1.4
28 | NCC(=O)N[C@@H](Cc1ccc(O)cc1)C(=O)O (H-Gly-Tyr-OH) | 2.32
29 | N[C@@H](Cc1cnc[nH]1)C(=O)N[C@@H](Cc1ccc(O)cc1)C(=O)O (H-His-Tyr-OH) | 1.42
30 | CC[C@H](C)[C@H](N)C(=O)N[C@@H](CC(C)C)C(=O)N1CCC[C@H]1C(=O)N1CCC[C@H]1C(=O)O (H-ILPP-OH) | 2.24
31 | CC[C@H](C)[C@H](N)C(=O)N[C@@H](C)C(=O)N1CCC[C@H]1C(=O)O (H-Ile-Ala-Pro-OH) | 0.43
32 | CC[C@H](C)[C@H](N)C(=O)N[C@@H](CCCNC(=N)N)C(=O)N1CCC[C@H]1C(=O)O (H-Ile-Arg-Pro-OH) | -0.13
33 | CC[C@H](C)[C@H](N)C(=O)N[C@@H](CCC(=O)O)C(=O)N1CCC[C@H]1C(=O)O (H-Ile-Glu-Pro-OH) | 0.2
34 | CC[C@H](C)[C@H](N)C(=O)N[C@@H](CCCCN)C(=O)N1CCC[C@H]1C(=O)O (H-Ile-Lys-Pro-OH) | 0.84
35 | CC[C@H](C)[C@H](N)C(=O)N1CCC[C@H]1C(=O)O (H-Ile-Pro-OH) | 2.11
36 | CC[C@H](C)[C@H](N)C(=O)N[C@@H](Cc1ccc(O)cc1)C(=O)O (H-Ile-Tyr-OH) | 0.79
37 | CC(C)C[C@H](N)C(=O)N[C@H](C(=O)N1CCC[C@H]1C(=O)N1CCC[C@H]1C(=O)O)C(C)C (H-LVPP-OH) | 2.1
38 | CC(C)C[C@H](N)C(=O)N[C@@H](C)C(=O)N1CCC[C@H]1C(=O)O (H-Leu-Ala-Pro-OH) | 0.54
39 | CC(C)C[C@H](N)C(=O)N[C@@H](CCCN=C(N)N)C(=O)N1CCC[C@H]1C(=O)O (H-Leu-Arg-Pro-OH) | -0.57
40 | CC(C)C[C@H](N)C(=O)N[C@@H](CC(N)=O)C(=O)N1CCC[C@H]1C(=O)O (H-Leu-Asn-Pro-OH) | 1.76
41 | CC(C)C[C@H](N)C(=O)N[C@@H](CCC(N)=O)C(=O)N1CCC[C@H]1C(=O)O (H-Leu-Gln-Pro-OH) | 0.28
42 | CC(C)C[C@H](N)C(=O)N[C@@H](CCC(=O)O)C(=O)N1CCC[C@H]1C(=O)O (H-Leu-Glu-Pro-OH) | 0.28
43 | CC(C)C[C@H](N)C(=O)N[C@@H](CCCCN)C(=O)N1CCC[C@H]1C(=O)O (H-Leu-Lys-Pro-OH) | 0.6
44 | CC(C)C[C@H](N)C(=O)N[C@@H](CO)C(=O)N1CCC[C@H]1C(=O)O (H-Leu-Ser-Pro-OH) | 0.23
45 | CC(C)C[C@H](N)C(=O)N[C@@H](Cc1ccc(O)cc1)C(=O)N1CCC[C@H]1C(=O)O (H-Leu-Tyr-Pro-OH) | 0.82
46 | NCCCC[C@H](N)C(=O)N1CCC[C@H]1C(=O)O (H-Lys-Pro-OH) | 1.34
47 | CSCC[C@H](N)C(=O)N[C@@H](CC(N)=O)C(=O)N1CCC[C@H]1C(=O)O (H-Met-Asn-Pro-OH) | 1.82
48 | CSCC[C@H](N)C(=O)N[C@@H](Cc1ccccc1)C(=O)O (H-Met-Phe-OH) | 1.65
49 | CSCC[C@H](N)C(=O)N[C@@H](Cc1c[nH]c2ccccc12)C(=O)O (H-Met-Trp-OH) | 1
50 | NCCCC[C@H](NC(=O)[C@@H]1CCCN1)C(=O)N[C@@H](Cc1cnc[nH]1)C(=O)N1CCC[C@H]1C(=O)O (H-PKHP-OH) | 2.85

Row | Molecule | logIC50
51 | C[C@H](NC(=O)[C@@H](N)Cc1ccccc1)C(=O)N1CCC[C@H]1C(=O)O (H-Phe-Ala-Pro-OH) | 0.58
52 | NC(=O)CC[C@H](NC(=O)[C@@H](N)Cc1ccccc1)C(=O)N1CCC[C@H]1C(=O)O (H-Phe-Gln-Pro-OH) | 1.08
53 | N[C@@H](Cc1ccccc1)C(=O)N[C@@H](CCC(=O)O)C(=O)N1CCC[C@H]1C(=O)O (H-Phe-Glu-Pro-OH) | 1.08
54 | N[C@@H](Cc1ccccc1)C(=O)N1CCC[C@H]1C(=O)O (H-Phe-Pro-OH) | 2.5
55 | N[C@@H](Cc1ccccc1)C(=O)N[C@@H](Cc1ccc(O)cc1)C(=O)O (H-Phe-Tyr-OH) | 1.4
56 | N[C@@H](CO)C(=O)N1CCC[C@H]1C(=O)N[C@@H](Cc1ccc(O)cc1)C(=O)N1CCC[C@H]1C(=O)O (H-SPYP-OH) | 2.93
57 | N[C@@H](CO)C(=O)N[C@@H](Cc1ccc(O)cc1)C(=O)O (H-Ser-Tyr-OH) | 1.82
58 | C[C@@H](O)[C@H](N)C(=O)N[C@@H](CC(N)=O)C(=O)N1CCC[C@H]1C(=O)O (H-Thr-Asn-Pro-OH) | 2.32
59 | C[C@@H](O)[C@H](N)C(=O)N[C@@H](Cc1ccccc1)C(=O)O (H-Thr-Phe-OH) | 1.95
60 | C[C@@H](O)[C@H](N)C(=O)N1CCC[C@H]1C(=O)O (H-Thr-Pro-OH) | 2.46
61 | N[C@@H](Cc1ccc(O)cc1)C(=O)N1CCC[C@H]1C(=O)O (H-Tyr-Pro-OH) | 2.86
62 | CC(C)[C@H](N)C(=O)N[C@@H](CO)C(=O)N[C@@H](CO)C(=O)N1CCC[C@H]1C(=O)O (H-VSSP-OH) | 1
63 | CC(C)[C@H](N)C(=O)N[C@H](C(=O)N1CCC[C@H]1C(=O)N1CCC[C@H]1C(=O)O)C(C)C (H-VVPP-OH) | 2.45
64 | CC(C)[C@H](N)C(=O)N[C@@H](CCCNC(=N)N)C(=O)N1CCC[C@H]1C(=O)O (H-Val-Arg-Pro-OH) | 0.34
65 | CC(C)[C@H](N)C(=O)NCC(=O)N1CCC[C@H]1C(=O)O (H-Val-Gly-Pro-OH) | 1.42
66 | CSCC[C@H](NC(=O)[C@@H](N)C(C)C)C(=O)N1CCC[C@H]1C(=O)O (H-Val-Met-Pro-OH) | 1.46
67 | CC(C)[C@H](N)C(=O)N[C@@H](Cc1ccccc1)C(=O)O (H-Val-Phe-OH) | 0.96
68 | CC(C)[C@H](N)C(=O)N1CCC[C@H]1C(=O)O (H-Val-Pro-OH) | 2.62
69 | CC(C)[C@H](N)C(=O)N[C@@H](CO)C(=O)N1CCC[C@H]1C(=O)O (H-Val-Ser-Pro-OH) | 1
70 | CC(C)[C@H](N)C(=O)N[C@@H](Cc1ccc(O)cc1)C(=O)O (H-Val-Tyr-OH) | 1.2
71 | CC(C)[C@H](N)C(=O)N[C@@H](Cc1ccc(O)cc1)C(=O)N1CCC[C@H]1C(=O)O (H-Val-Tyr-Pro-OH) | 2.46
72 | H-APVPP-OH | 2.8
73 | H-AVPYP-OH | 1.9
74 | H-DKIHP-OH | 2.05
75 | H-DYGLYP-OH | 1.79

Row | Molecule | logIC50
76 | H-FFVAP-OH | 0.78
77 | H-GRVMP-OH | 2.4
78 | H-HQIYP-OH | 2.04
79 | H-IAYKP-OH | 0.34
80 | H-LALPP-OH | 2.9
81 | H-LAYFYP-OH | 1.81
82 | H-LHLPAP-OH | 0.78
83 | H-LHLPGP-OH | 0.28
84 | H-LHLPLP-OH | 0.57
85 | H-LHLPYP-OH | 0.36
86 | H-LHLWLP-OH | 0.95
87 | H-LHLYLP-OH | 1.28
88 | H-PQPIP-OH | 2.53
89 | H-PVPQP-OH | 2.04
90 | H-PVVVPP-OH | 2.07
91 | H-RPQIPP-OH | 1.66
92 | H-SKVPP-OH | 1.87
93 | H-TKVIP-OH | 2.6
94 | H-VHLAP-OH | 0.65
95 | H-VHLPP-OH | 1.26
96 | H-VIEKYP-OH | 2.24
97 | H-VLIVP-OH | 2.23
98 | H-VLPIP-OH | 1.49
99 | H-VLPYP-OH | 1.56
100 | H-VRGPFP-OH | 2.77
